Source: patent publication US9624161B2 (priority 2009, dated 2017)
Where “and” joins values, the source holds several entries; their conditions need not be identical. Identical values can stand only once.

What was measured:
male or female dogs = experiment: Single and repeated oral dose toxicity in dogs (up to 28 days); type: in vivo, dog
Description: Compound IV was well-tolerated by rats and dogs after single and repeated oral administration (up to 28 days).

human platelets = experiment: In vitro human platelet aggregation assay (thrombin-induced)
intact male rats = experiment: Bone preservation despite reduction of LH and testosterone in rats (oral); type: in vivo, rat
[1] = system: isolated canine Purkinje fibers; experiment: Action potential duration in isolated canine Purkinje fibers in vitro; conditions: 10 and 100 μM
Method: Compound IV exerts little or no in vitro inhibitory effects (IC50≧300 μM) on the hERG channel.

[2] = system: men with metastatic castration resistant prostate cancer (mCRPC); experiment: Study 6: secondary hormone therapy with Compound IV 125 mg, 250 mg or 500 mg in mCRPC/nmCRPC maintained on ADT; type: in vivo, human
Description: Compound IV, is studied (Study 6) for the proposed indication secondary hormone therapy for metastatic castration resistant prostate cancer (mCRPC), for high risk non-metastatic castration resistant prostate cancer (nmCRPC) or advanced prostate cancer at high risk of progressing to CRPC, or any combination thereof.
The effect of Compound IV as secondary hormonal therapy that reduces serum PSA and serum free testosterone levels in men with metastatic castration resistant prostate cancer maintained on androgen deprivation therapy is studied. The study assesses the effects of Compound IV on serum PSA response and serum PSA progression in men with mCRPC on ADT with LHRH agonists, LHRH antagonists, or orchidectomy. This study also assesses the VTE risk of lower doses of Compound IV. Secondary endpoints include serum free testosterone levels, adrenal gland androgen precursor production (DHEA and DHEAS levels), progression free survival, and skeletal related events (SRE).
75 subjects with castration resistant prostate cancer patients with radiographic evidence of metastatic disease (T any-N any-M1) are enrolled in the study. These subjects have a median life expectancy of less than 20 months, i.e. more serious disease than the other subjects with advanced prostate cancer enrolled in the previous studies. All subjects have been previously treated with androgen deprivation therapy (ADT), have responded to the ADT and currently have a serum PSA >2 ng/mL or >2 ng/mL and representing a 25% increase above the nadir achieved on the ADT. Subjects are maintained on ADT throughout the study.
Each subject receives daily doses of 125 mg Compound IV, 250 mg Compound IV, or 500 mg Compound IV administered orally, until their serum PSA increases at least 25% and 2 ng/mL from the nadir at two successive serum PSA assessments after initiation of treatment with Compound IV.
Enrollment into this study is staggered by 1 cycle (30 days) such that the first 25 subjects are enrolled into the 125 mg Compound IV dose arm. These subjects are evaluated for incidence of venous thromboembolic events (VTE). When the last subject in the 125 mg Compound IV dose arm has completed 1 cycle of therapy (30 days) in this dose arm and there is an acceptable incidence rate of VTE in this dose arm at that time (less than 3), enrollment is commenced in the 250 mg Compound IV dose arm. These subjects are evaluated for the incidence of VTE. When all 25 subjects in the 250 mg Compound IV dose arm have completed 1 cycle of therapy (30 days) in this dose arm and there is an acceptable incidence rate of VTE in this dose arm at that time (less than 3), enrollment into the 500 mg Compound IV dose arm (25 subjects) is commenced.
125 mg Compound IV, 250 mg Compound IV, or 500 mg Compound IV will be administered daily to all subjects in the study until they have developed serum PSA progression (serum PSA has increased at least 25% and 2 ng/mL above the nadir at two successive sample times after initiation of treatment with Compound IV).
Assessments of serum total testosterone, serum free testosterone, serum SHGB and serum PSA concentrations are made on Days 15, 30, and every 30 days until their serum PSA has increased at least 25% and 2 ng/mL from the nadir at two successive sample times after initiation of treatment with Compound IV. Bone turnover markers are assessed at baseline (Day 1), Day 90, and End of Study.
The incidence and frequency of hot flashes is assessed at baseline (Day 1), Day 30, Day 60, Day 90 and End of Study.
The proportion of subjects with a 50% decline from baseline in serum PSA (confirmed by a second serum PSA assessment 30 days later) by Day 90 (with follow up confirmation by Day 120) […]

[3] = 250 mg, 11 evaluable patients (FIG. 61)
[4] = Study 6, 125 mg, 20 evaluable patients
[5] = Study 6, 125 mg, 21 evaluable patients
[6] = Study 6, 125 mg, mCRPC on ADT, Day 90, N 20
[7] = Study 6, 125 mg, mCRPC on ADT, N 20
[8] = Study 6, 125 mg, patients with hot flashes at baseline
[9] = Study 6, 125 mg, patients with no hot flashes at baseline

For `O=C(c1ccc(O)c(F)c1)N(c1ccc(O)cc1)c1ccc(F)cc1` [Compound IV, 3-fluoro-N-(4-fluorophenyl)-4-hydroxy-N-(4-hydroxyphenyl)benzamide], the “Tolerability after single and repeated oral administration” value (male or female dogs) was “well-tolerated”, the “Procoagulatory activity compared with DES” value (human platelets) was “much lower procoagulatory activity than DES” and the “Bone loss associated with LH suppression” value (intact male rats) was “completely prevented the bone loss”. For the same compound, the APD50 [1] was “dose-dependently decreased”, the APD90 [1] was “dose-dependently decreased” and the “Deep vein thrombosis events (DVTs)” value ([2]; 125 mg) was “No deep vein thrombosis events (DVTs) have been reported”. For the same compound, the “Evaluable patients with improvements in hot flash frequency or severity” value ([2]; 125 mg) was 33%, the “Evaluable patients with reductions in CTX” value ([2]; 125 mg) was 60% and the “Evaluable patients with reductions in bone specific alkaline phosphatase” value ([2]; 125 mg) was 52%. For the same compound, the “Men that do not respond and have continually increasing PSA levels” value ([2]; 125 mg) was 6, the “Patients reporting a PSA decrease in response to therapy” value ([2]; 125 mg) was 24 patients and the “Patients with maximum free T reductions greater than 50% from baseline” value ([2]; 125 mg) was 24 of 30. The “Patients with reductions in free T” value ([2]; 125 mg) was 27 of 30, the “SAEs or VTEs” value ([2]; 125 mg) was “no SAEs or VTEs” and the “Subjects with decreased collagen C-telopeptide (CTX)” value ([2]; 125 mg) was 69%. The “Subjects with ≧50% decrease in PSA level” value ([2]; 125 mg) was 11%, the “Patients with free T >0.7 pg/ml (Day 1) that go to <0.7 pg/mL” value ([2]; 125 mg cohort) was 22/25 and the “Patients with total T >20 ng/dL (Day 1) that do NOT go to <20 ng/dL” value ([2]; 125 mg cohort) was 0/3. For the same compound, the “Patients with total T >20 ng/dL (Day 1) that go to <20 ng/dL” value ([2]; 125 mg cohort) was 3/3, the “Patients with improvement in both frequency and severity of hot flashes” value ([2]; 125 mg, 18 evaluable patients) was 22% and the “Patients with improvement of frequency or severity and stability of the other measurement” value ([2]; 125 mg, 18 evaluable patients) was 11%. For the same compound, the “Patients with stability in frequency and severity of hot flashes” value ([2]; 125 mg, 18 evaluable patients) was 50%, the “Patients with worsening of either frequency or severity of hot flashes” value ([2]; 125 mg, 18 evaluable patients) was 17% and the “SHBG level relative to Day 0 in all treated men” value ([2]; 125 mg, at least 90 days, initial 15 patients) was ≥ 150 % of Day 0. The “Men with suboptimal castration (free T>0.7 pg/ml) that became optimally castrated” value ([2]; 125 mg, by day 90, initial 15 patients) was 91%, the “Treated men with improvement and stability of bone turnover markers” value ([2]; 125 mg, initial group, 11 evaluable subjects) was “at least 73%” and the “Patients with >45% decrease in PSA” value ([2]; 125 mg, prior to day 90, initial 15 patients) was 4/15 and 4. For the same compound, the “Subjects with any level of PSA decline” value ([2]; 250 mg) was 85%, the “Subjects with decreased collagen C-telopeptide (CTX)” value ([2]; 250 mg) was 81% and the “Subjects with ≧50% decrease in PSA level” value ([2]; 250 mg) was 30%. The “Patients with free T >0.7 pg/ml (Day 1) that go to <0.7 pg/mL” value ([2]; 250 mg cohort) was 9/10, the “Patients with total T >20 ng/dL (Day 1) that do NOT go to <20 ng/dL” value ([2]; 250 mg cohort) was 0/4 and the “Patients with total T >20 ng/dL (Day 1) that go to <20 ng/dL” value ([2]; 250 mg cohort) was 4/4. The “Reported drug related serious adverse events (SAE)” value ([2]; 250 mg daily) was “one”, the “Subjects that reported adverse events (AE's)” value ([2]; 250 mg daily) was “seven” and the “Median SHBG level” value ([2]; 250 mg daily, initial 20 patients, 90 days) was 297 % of baseline. The “SAE possibly drug related” value ([2]; 250 mg daily, patient required hospitalization) was “Phlebothrombosis-Grade 3”, the “Patients stable in both hot flash measurements” value [2, 3] was 45% and the “Patients with improvement in both/either frequency and severity of hot flashes” value [2, 3] was 36%. For the same compound, the “Bone turnover (CTX) decreased (improved), share of subjects” value ([2]; Study 6, 125 mg cohort) was 69% are decreased, the “SHBG, median (of baseline)” value ([2]; Study 6, 125 mg cohort) was “Median - 158%” and the “PSA response: subjects with ≧50% decrease in PSA” value ([2]; Study 6, 125 mg cohort, 4/38) was 4/38 ≧ 50% (11%). The “Hot flashes improved, in men experiencing them on Day 1” value ([2]; Study 6, 125 mg cohort, 7/24) was 7/24 improved (29%), the “Hot flashes stable, in men experiencing them on Day 1” value ([2]; Study 6, 125 mg cohort, 12/24) was 12/24 stable (50%) and the “CTx decreased, # of patients (%)” value [2, 4] was 12/20 (60%). The “CTx increased, # of patients (%)” value [2, 4] was 5/20 (25%), the “CTx unchanged, # of patients (%)” value [2, 4] was 3/20 (15%) and the “BSAP decreased, # of patients (%)” value [2, 5] was 11/21 (52%). The “BSAP increased, # of patients (%)” value [2, 5] was 8/21 (38%), the “BSAP unchanged, # of patients (%)” value [2, 5] was 2/21 (10%) and the “Adverse event frequency (%): Bone pain” value ([2]; Study 6, 125 mg, 34 subjects) was 3 (9%). For the same compound, the “Adverse event frequency (%): Gynecomastia (grade 2)” value ([2]; Study 6, 125 mg, 34 subjects) was 4 (12%), the “Adverse event frequency (%): Gynecomastia/breast tenderness (grade 1)” value ([2]; Study 6, 125 mg, 34 subjects) was 4 (12%) and the “Adverse event frequency (%): Loss of appetite” value ([2]; Study 6, 125 mg, 34 subjects) was 3 (9%). The “Adverse event frequency (%): Nausea” value ([2]; Study 6, 125 mg, 34 subjects) was 2 (6%), the “Adverse event frequency: VTE” value ([2]; Study 6, 125 mg, 34 subjects) was 0 and the “Free testosterone level, mean” value [2, 6] was 0.57 pg/mL. For the same compound, the “Free testosterone level, median” value [2, 6] was 0.45 pg/mL, the “Free testosterone, % change from baseline to Day 90, median” value [2, 7] was −57.14% and the “Free testosterone, change from baseline to Day 90, median” value [2, 7] was -0.50 pg/mL. The “Free testosterone, change from baseline to Day 90, mean” value ([2]; Study 6, 125 mg, mCRPC on ADT, N 20, P 0.0002) was -0.74 pg/mL, the “Free testosterone, % change from baseline to Day 90, mean” value ([2]; Study 6, 125 mg, mCRPC on ADT, N 20, P 0.0035) was −34.59% and the “Change in hot flashes (frequency, severity): (Better, Better), % of patients” value [2, 8] was 18.75%. For the same compound, the “Change in hot flashes (frequency, severity): (Better, Stable), % of patients” value [2, 8] was 18.75%, the “Change in hot flashes (frequency, severity): (Better, Worse), % of patients” value [2, 8] was 6.25% and the “Change in hot flashes (frequency, severity): (Stable, Stable), % of patients” value [2, 8] was 37.50%. The “Change in hot flashes (frequency, severity): (Stable, Worse), % of patients” value [2, 8] was 6.25%, the “Change in hot flashes (frequency, severity): (Worse, Worse), % of patients” value [2, 8] was 12.50% and the “Change in hot flashes (frequency, severity): (Stable, Stable), % of patients” value [2, 9] was 77.78%. The “Change in hot flashes (frequency, severity): (Worse, Worse), % of patients” value [2, 9] was 22.22%, the “SHBG, mean (of baseline)” value ([2]; Study 6, 250 mg cohort) was “Mean - 294%” and the “SHBG, median (of baseline)” value ([2]; Study 6, 250 mg cohort) was “Median - 297%”. For the same compound, the “Hot flashes improved, in men experiencing them on Day 1” value ([2]; Study 6, 250 mg cohort, 4/11) was 4/11 improved (36%), the “Hot flashes stable, in men experiencing them on Day 1” value ([2]; Study 6, 250 mg cohort, 5/11) was 5/11 stable (45%) and the “PSA response: subjects with ≧50% decrease in PSA” value ([2]; Study 6, 250 mg cohort, 6/20, Day 90) was 6/20 ≧ 50% (30%). The “Bone turnover (CTX) decreased (improved), share of subjects” value ([2]; Study 6, 250 mg cohort, 13/16) was 13/16 (81%) are, the “Reported adverse event: Bilateral Breast Tenderness, grade” value ([2]; Study 6, 250 mg daily) was “Grade 1” and the “Reported adverse event: Diarrhea, grade” value ([2]; Study 6, 250 mg daily) was “Grade 1”. For the same compound, the “Reported adverse event: Gynecomastia, grade” value ([2]; Study 6, 250 mg daily) was “Grade 2”, the “Reported adverse event: Nipple Pain, grade” value ([2]; Study 6, 250 mg daily) was “Grade 1” and the “Reported adverse event: Nipple Tenderness, grade” value ([2]; Study 6, 250 mg daily) was “Grade 1”. For the same compound, the “Reported adverse event: Sensitivity of Mammila, grade” value ([2]; Study 6, 250 mg daily) was “Grade 1”.
